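Grown in 96-well plates, cells were treated for 48 hours with each compound at five concentrations. Insufficient inhibition: endpoint recorded as highest concentration tested. Abbreviation: GI50, concentration required for 50% inhibition of growth.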 Activity calls are given as the source filed them. Cut-off read from the data, not from the text of the source: active = GI50 up to about 1.1 µM and inactive = higher.
Experiments:
Assay in all cases: inhibition of tumour cell growth, NCI panel, 48 h
HL-60 = test system: HL-60
NCI-H23 = test system: NCI-H23
ACHN = test system: ACHN
COLO 205 = test system: COLO 205
RPMI-8226 = test system: RPMI-8226
IGROV-1 = test system: IGROV-1
SK-MEL-28 = test system: SK-MEL-28
A498 = test system: A498
SNB-75 = test system: SNB-75
LOX IMVI = test system: LOX IMVI
U-251 = test system: U-251
Malme-3M = test system: Malme-3M
OVCAR-3 = test system: OVCAR-3
SF-295 = test system: SF-295
OVCAR-4 = test system: OVCAR-4
MDA-MB-435 = test system: MDA-MB-435
K562 = test system: K562
HOP-62 = test system: HOP-62
NCI-H522 = test system: NCI-H522
RXF 393 = test system: RXF 393
CCRF-CEM = test system: CCRF-CEM
UACC-257 = test system: UACC-257
786-0 = test system: 786-0
HT-29 = test system: HT-29
PC-3 = test system: PC-3
KM12 = test system: KM12
NCI-H460 = test system: NCI-H460
HCT-116 = test system: HCT-116
NCI/ADR-RES = test system: NCI/ADR-RES
HCC 2998 = test system: HCC 2998
MOLT-4 = test system: MOLT-4
DU-145 = test system: DU-145
OVCAR-5 = test system: OVCAR-5
SN12C = test system: SN12C
SK-MEL-2 = test system: SK-MEL-2
T47D = test system: T47D
EKVX = test system: EKVX
NCI-H226 = test system: NCI-H226
UACC-62 = test system: UACC-62
SW-620 = test system: SW-620
M14 = test system: M14
HCT-15 = test system: HCT-15
MDA-N = test system: MDA-N
Hs-578T = test system: Hs-578T
MCF7 = test system: MCF7
SF-268 = test system: SF-268
MDA-MB-231 = test system: MDA-MB-231
SK-MEL-5 = test system: SK-MEL-5
SK-OV-3 = test system: SK-OV-3
OVCAR-8 = test system: OVCAR-8
A549 = test system: A549
TK-10 = test system: TK-10
SNB-19 = test system: SNB-19
HOP-92 = test system: HOP-92
SF-539 = test system: SF-539
SR = test system: SR
UO-31 = test system: UO-31
CAKI-1 = test system: CAKI-1

Cc1ccc(Cl)c2[nH]c(-c3ccccc3)cc(=O)c12
GI50 (HL-60): 23 µM (inactive)
GI50 (NCI-H23): 46.7 µM (inactive)
GI50 (ACHN): 30.3 µM (inactive)
GI50 (COLO 205): 40.9 µM (inactive)
GI50 (RPMI-8226): 36.1 µM (inactive)
GI50 (IGROV-1): 33.7 µM (inactive)
GI50 (SK-MEL-28): 39.7 µM (inactive)
GI50 (A498): 25.6 µM (inactive)
GI50 (SNB-75): 36.1 µM (inactive)
GI50 (LOX IMVI): 22.5 µM (inactive)
GI50 (U-251): 77.8 µM (inactive)
GI50 (Malme-3M): > 100 µM (inactive)
GI50 (OVCAR-3): 36.1 µM (inactive)
GI50 (SF-295): 63.5 µM (inactive)
GI50 (OVCAR-4): 37.8 µM (inactive)
GI50 (MDA-MB-435): 21.1 µM (inactive)
GI50 (K562): 30.1 µM (inactive)
GI50 (HOP-62): 78.3 µM (inactive)
GI50 (NCI-H522): 57.1 µM (inactive)
GI50 (RXF 393): 44 µM (inactive)
GI50 (CCRF-CEM): 38.5 µM (inactive)
GI50 (UACC-257): 40.9 µM (inactive)
GI50 (786-0): 90.4 µM (inactive)
GI50 (HT-29): 43.5 µM (inactive)
GI50 (PC-3): 23.3 µM (inactive)
GI50 (KM12): 21.4 µM (inactive)
GI50 (NCI-H460): 37 µM (inactive)
GI50 (HCT-116): 29.2 µM (inactive)
GI50 (NCI/ADR-RES): 57.4 µM (inactive)
GI50 (HCC 2998): 93.1 µM (inactive)
GI50 (MOLT-4): 21.6 µM (inactive)
GI50 (DU-145): 43.7 µM (inactive)
GI50 (OVCAR-5): 76.4 µM (inactive)
GI50 (SN12C): 46.5 µM (inactive)
GI50 (SK-MEL-2): 65.6 µM (inactive)
GI50 (T47D): 11.5 µM (inactive)
GI50 (EKVX): 6.41 µM (inactive)
GI50 (NCI-H226): 31.3 µM (inactive)
GI50 (UACC-62): 48.2 µM (inactive)
GI50 (SW-620): 39.2 µM (inactive)
GI50 (M14): 39.8 µM (inactive)
GI50 (HCT-15): 39.2 µM
GI50 (MDA-N): 22.3 µM (inactive)
GI50 (Hs-578T): 59.2 µM (inactive)
GI50 (MCF7): 3.18 µM (inactive)
GI50 (SF-268): 14.8 µM (inactive)
GI50 (MDA-MB-231): 38.9 µM (inactive)
GI50 (SK-MEL-5): 15.8 µM (inactive)
GI50 (SK-OV-3): > 100 µM (inactive)
GI50 (OVCAR-8): 50.9 µM (inactive)
GI50 (A549): 24.1 µM (inactive)
GI50 (TK-10): 47.2 µM (inactive)

COC(=O)C1(C(=O)OC)Cc2ccc(C)cc2C2=C1C(=O)c1ccccc1C2=O
GI50 (SNB-19): 58.6 µM (inactive)
GI50 (HL-60): 31.6 µM (inactive)
GI50 (NCI-H23): 18.2 µM (inactive)
GI50 (ACHN): 16.5 µM (inactive)
GI50 (IGROV-1): 19.4 µM (inactive)
GI50 (SK-MEL-28): 16.6 µM (inactive)
GI50 (SNB-75): 12.8 µM (inactive)
GI50 (LOX IMVI): 14.9 µM (inactive)
GI50 (Malme-3M): 32 µM (inactive)
GI50 (OVCAR-3): 3.24 µM (inactive)
GI50 (SF-295): 21.2 µM (inactive)
GI50 (OVCAR-4): 11.5 µM (inactive)
GI50 (HOP-92): 20 µM (inactive)
GI50 (MDA-MB-435): 15.6 µM (inactive)
GI50 (K562): 18.2 µM (inactive)
GI50 (SF-539): 23.9 µM (inactive)
GI50 (HOP-62): 14.4 µM (inactive)
GI50 (NCI-H522): 15.1 µM (inactive)
GI50 (CCRF-CEM): 15.2 µM (inactive)
GI50 (UACC-257): 16.5 µM (inactive)
GI50 (786-0): 26.4 µM (inactive)
GI50 (HT-29): 21.7 µM (inactive)
GI50 (PC-3): 15.2 µM (inactive)
GI50 (KM12): 16.6 µM (inactive)
GI50 (NCI-H460): 40.6 µM (inactive)
GI50 (HCT-116): 18.2 µM (inactive)
GI50 (NCI/ADR-RES): 12.6 µM (inactive)
GI50 (MOLT-4): 8.51 µM (inactive)
GI50 (DU-145): 20.2 µM (inactive)
GI50 (OVCAR-5): 21 µM (inactive)
GI50 (SN12C): 19.8 µM (inactive)
GI50 (SK-MEL-2): 11.7 µM (inactive)
GI50 (T47D): 7.71 µM (inactive)
GI50 (EKVX): 14.6 µM (inactive)
GI50 (NCI-H226): > 100 µM (inactive)
GI50 (UACC-62): 13.8 µM (inactive)
GI50 (SW-620): 19.8 µM (inactive)
GI50 (M14): > 10 µM (inactive)
GI50 (HCT-15): 12.6 µM
GI50 (MDA-N): 16.5 µM (inactive)
GI50 (Hs-578T): 24.6 µM (inactive)
GI50 (MCF7): 15 µM (inactive)
GI50 (SF-268): 16 µM (inactive)
GI50 (SR): 24.2 µM (inactive)
GI50 (MDA-MB-231): 16.7 µM (inactive)
GI50 (SK-MEL-5): 15 µM (inactive)
GI50 (OVCAR-8): 13.3 µM (inactive)
GI50 (A549): 29.9 µM (inactive)
GI50 (TK-10): 57 µM (inactive)

O=C1CS(=O)(=O)C(c2cccc(Oc3ccccc3)c2)N1c1cccc(Cl)c1Cl (configuration not stated)
GI50 (SNB-19): 39.5 µM (inactive)
GI50 (HL-60): 31 µM (inactive)
GI50 (ACHN): 20.3 µM (inactive)
GI50 (COLO 205): 26.9 µM (inactive)
GI50 (SK-MEL-28): 51.4 µM (inactive)
GI50 (SNB-75): 29.3 µM (inactive)
GI50 (LOX IMVI): 17.7 µM (inactive)
GI50 (U-251): 20 µM (inactive)
GI50 (Malme-3M): 24.3 µM (inactive)
GI50 (OVCAR-3): 21.5 µM (inactive)
GI50 (SF-295): 33.8 µM (inactive)
GI50 (OVCAR-4): 20.4 µM (inactive)
GI50 (HOP-92): 7.26 µM (inactive)
GI50 (MDA-MB-435): 19.7 µM (inactive)
GI50 (K562): 16.6 µM (inactive)
GI50 (UO-31): 29.5 µM (inactive)
GI50 (SF-539): 20.8 µM (inactive)
GI50 (HOP-62): 40.6 µM (inactive)
GI50 (NCI-H522): 18 µM (inactive)
GI50 (RXF 393): 25.1 µM (inactive)
GI50 (CCRF-CEM): 10.7 µM (inactive)
GI50 (UACC-257): 21 µM (inactive)
GI50 (786-0): 15 µM (inactive)
GI50 (HT-29): 25.2 µM (inactive)
GI50 (PC-3): 26.4 µM (inactive)
GI50 (KM12): 26.7 µM (inactive)
GI50 (NCI-H460): 36.2 µM (inactive)
GI50 (HCT-116): 22.4 µM (inactive)
GI50 (MOLT-4): 20.2 µM (inactive)
GI50 (DU-145): 42.6 µM (inactive)
GI50 (OVCAR-5): 47.5 µM (inactive)
GI50 (SN12C): 19.8 µM (inactive)
GI50 (SK-MEL-2): 19.5 µM (inactive)
GI50 (T47D): 26.2 µM (inactive)
GI50 (EKVX): 23.8 µM (inactive)
GI50 (NCI-H226): 35.7 µM (inactive)
GI50 (UACC-62): 13.5 µM (inactive)
GI50 (SW-620): 28.8 µM (inactive)
GI50 (M14): 39.1 µM (inactive)
GI50 (MDA-N): 19.6 µM (inactive)
GI50 (Hs-578T): 29.8 µM (inactive)
GI50 (MCF7): 6.11 µM (inactive)
GI50 (SF-268): 21.5 µM (inactive)
GI50 (SR): 18.7 µM (inactive)
GI50 (MDA-MB-231): 23.8 µM (inactive)
GI50 (SK-MEL-5): 18.2 µM (inactive)
GI50 (SK-OV-3): 67 µM (inactive)
GI50 (OVCAR-8): 19.1 µM (inactive)
GI50 (A549): > 100 µM (inactive)
GI50 (TK-10): 25.3 µM (inactive)
GI50 (CAKI-1): 31.3 µM (inactive)
